System: HIV-1 LAI
Assay: microbe, parasite or virus in culture
Conditions: for Combination Indices at % HIV Inhibition (Confidence Interval) 50% / Combination Indices at % HIV Inhibition (Confidence Interval) 75% / Combination Indices at % HIV Inhibition (Confidence Interval) 90% / Overall Result (combined anti-HIV effect): Compound 1 + named drug; for Combination Indices at % HIV Inhibition (Confidence Interval) 50% / Combination Indices at % HIV Inhibition (Confidence Interval) 75% / Combination Indices at % HIV Inhibition (Confidence Interval) 90%: 95% confidence interval in parentheses; for Overall Result (combined anti-HIV effect): all ratios, MT-2 cells, HIV-1 LAI
Method: Virus and cell lines. The T-cell lines, MT-2 and PM-1 were obtained through the AIDS Research and Reference Reagent Program, NIAID, and were contributed by Dr. D. Richman and Dr. R. Gallo, respectively. Both cell lines were cultured in RPMI 1640 medium supplemented with 10% fetal bovine serum, 2 mM L-glutamine and sub-cultured twice a week. The LAI strain of HIV-1 was obtained from the Fred Hutchinson Cancer Research Center, and the Bal strain was from NIH. Both virus stocks were amplified and titered in MT-2 cells (LAI) and PM-1 cells (Bal) using a virus infectivity assay.
Drug Susceptibility and Cytotoxicity Assays. For drug susceptibility assays, MT-2 cells were infected with HIV-1 LAI (or PM-1 cells with HIV-1 Bal) at an MOI of 0.005, and seeded into 96-well microtiter plates (0.1×10^6 cells/ml) containing serial dilutions of test compounds. […] Each drug ratio consisted of an array of 3-fold serial dilutions, and was performed in quadruplicate. The plates were incubated at 37° C./5% CO2. The MT-2 cells infected with HIV-1 LAI were incubated for 5 days. On day-five post-infection, 20 μl from each well was harvested and quantitated by a reverse transcriptase (RT) assay, or in samples involving non-nucleoside RT inhibitors, an MTS assay. The PM-1 cells infected with HIV-1 Bal and used for studying the combinations with CCR5 inhibitors were incubated for six days. On day-six post-infection, 20 μl from each well was harvested, 20- and 50-fold diluted and quantitated by p24 assay. Cytotoxicity assays were performed using uninfected cells, exposed to the same drug combinations, and incubated for six days. Cell viability was determined by an MTS assay. The CC50 values were calculated by using the exponential form of the median effect equation as mentioned below for calculation of EC50.
Analysis of Drug Combination Effects. For determination of CI values, drugs were diluted in a fixed ratio and multiple ratios were analyzed. The drug serial dilutions spanned a range of concentrations near the EC50 value of each compound, so that equivalent antiviral activities could be compared. Concentration-response curves were estimated for each individual drug and every combination using the median-effect equation. The equation was fit using a nonlinear regression routine (Proc Nlin) in PC SAS version 8.01 (SAS Institute Inc., SAS Version 8.01, Cary, N.C.: SAS Institute Inc., 1990).
In this equation, Fa stands for “fraction affected,” and represents the fraction of the viral load that has been inactivated. […] ED50 is drug concentration that is expected to reduce the amount of virus by 50%, and m is a parameter that reflects the slope of the concentration-response curve.
To assess antiviral effects of different drug combination treatments, combination indices (CIs) were calculated according to Chou and Rideout. The combination index was computed as CI=[D]1/[Dm]1+[D]2/[Dm]2
In this equation [Dm]1 and [Dm]2 are the concentrations of drugs that would individually produce a specific level of effect, while [D]1 and [D]2 are the concentrations of drugs in combination that would produce the same level of effect.
Theoretically, additivity is implied if the CI is equal to one, synergy if the CI is less than one, and antagonism if the CI is greater than one. […] At best, we can construct a range that contains the likely values for the CI, given the noise in the data. In this report, these ranges are reported in parentheses next to each point estimate of the CI. […] If the range fell entirely above 1.0, we would infer antagonistic behavior. If the range were to include 1.0, we would infer additivity.
In carrying out the combination experiments below, the EC50 for Compound 1 and each comparator compound was determined during the course of each study, and used in the subsequent data analysis.

[1] = EC50 ratio 1:1 (Compound 1:comparator)
[2] = EC50 ratio 1:2.5 (Compound 1:comparator)
[3] = EC50 ratio 2.5:1 (Compound 1:comparator)
[4] = Human immunodeficiency virus 1, MT2, 120 h

Compound | Combination Indices at % HIV Inhibition (Confidence Interval) 50% [1] | Combination Indices at % HIV Inhibition (Confidence Interval) 75% [1] | Combination Indices at % HIV Inhibition (Confidence Interval) 90% [1] | Combination Indices at % HIV Inhibition (Confidence Interval) 50% [2] | Combination Indices at % HIV Inhibition (Confidence Interval) 75% [2] | Combination Indices at % HIV Inhibition (Confidence Interval) 90% [2] | Combination Indices at % HIV Inhibition (Confidence Interval) 50% [3] | Combination Indices at % HIV Inhibition (Confidence Interval) 75% [3] | Combination Indices at % HIV Inhibition (Confidence Interval) 90% [3] | Overall Result (combined anti-HIV effect) | Overall Result (combined anti-HIV effect) (listed as nevapiradine) | EC50 [4] [nM] | EC50 (LAI) [nM] | Overall Result (combined anti-HIV effect) (listed as efavirenz)
Cc1ccnc2c1NC(=O)c1cccnc1N2C1CC1 [Nevirapine, nevirapine] | 0.19 (0.15, 0.23) | 0.22 (0.16, 6.28) | 0.26 (0.15, 0.38) | 0.48 (0.35, 0.62) | 0.66 (0.40, 0.92) | 0.92 (0.35, 1.49) | 0.58 (0.48, 0.67) | 0.99 (0.76, 1.22) | 1.71 (1.09, 2.33) | Additive- | additive-synergystic | 107 | – | –
CC(C)(C)NC(=O)[C@@H]1C[C@@H]2CCCC[C@@H]2CN1C[C@@H](O)[C@H](Cc1ccccc1)NC(=O)[C@H](CC(N)=O)NC(=O)c1ccc2ccccc2n1 [Saquinavir, saquinavir] | 0.31 (0.28, 0.33) | 0.31 (0.28, 0.35) | 0.32 (0.26, 0.38) | 0.60 (0.52, 0.67) | 0.67 (0.56, 0.79) | 0.77 (0.56, 0.97) | 0.39 (0.33, 0.45) | 0.59 (0.46, 0.72) | 0.90 (0.58, 1.22) | Synergistic | – | 5 | – | –
enfuvirtide | 0.47 (0.40, 0.54) | 0.53 (0.42, 0.65) | 0.60 (0.39, 0.81) | 0.48 (0.37, 0.60) | 0.60 (0.40, 0.80) | 0.75 (0.35, 1.15) | 0.35 (0.29, 0.40) | 0.47 (0.37, 0.57) | 0.63 (0.40, 0.86) | Synergistic | – | – | 1 | –
COc1cnc(-n2cnc(C)n2)c2[nH]cc(C(=O)C(=O)N3CCN(C(=O)c4ccccc4)CC3)c12 [Compound 1, 1-Benzoyl-4-[2-[4-methoxy-7-(3-methyl-1H-1,2,4-triazol-1-yl)-1H-pyrrolo[2,3-c]pyridin-3-yl]-1,2-dioxoethyl]-piperazine] | – | – | – | – | – | – | – | – | – | – | – | 0.1 to 0.3 | – | –
Nc1ccn([C@H]2CC[C@@H](CO)O2)c(=O)n1 [Zalcitabine, zalcitabine] | 0.58 (0.46, 0.69) | 0.61 (0.43, 0.78) | 0.69 (0.39, 1.00) | – | 0.56 (0.44, 0.68) | 0.65 (0.43, 0.86) | 0.24 (0.22, 0.26) | 0.18 (0.16, 0.20) | 0.14 (0.12, 0.17) | Synergistic | – | 34 | – | –
O=C1Nc2ccc(Cl)cc2[C@@](C#CC2CC2)(C(F)(F)F)O1 [Efavirenz, efavirenz] | 0.70 (0.50, 0.89) | – | 0.32 (0.13, 0.50) | 0.47 (0.28, 0.65) | 0.46 (0.21, 0.70) | 0.45 (0.06, 0.83) | 0.52 (0.36, 0.69) | 0.39 (0.21, 0.57) | 0.30 (0.08, 0.51) | Synergistic | – | 1 | – | synergistic
Nc1nc(NC2CC2)c2ncn([C@H]3C=C[C@@H](CO)C3)c2n1 [Abacavir, abacavir] | 0.69 (0.49, 0.89) | 0.77 (0.46, 1.09) | 0.87 (0.30, 1.44) | 0.56 (0.45, 0.67) | – | 0.48 (0.27, 0.68) | 0.10 (0.05, 0.14) | 0.27 (0.16, 0.39) | – | Additive- | – | 326 | – | –
Nc1nc(=O)n([C@@H]2CS[C@H](CO)O2)cc1F [Emtricitabine, emtricitabine] | 0.42 (0.35, 0.50) | 0.49 (0.37, 0.61) | – | 0.19 (0.15, 0.22) | 0.35 (0.26, 0.44) | 0.67 (0.36, 0.99) | 0.11 (0.09, 0.12) | 0.26 (0.21, 0.31) | 0.67 (0.44, 0.89) | Synergistic | – | 25 | – | –
COC(=O)N[C@H](C(=O)N[C@@H](Cc1ccccc1)[C@@H](O)CN(Cc1ccc(-c2ccccn2)cc1)NC(=O)[C@@H](NC(=O)OC)C(C)(C)C)C(C)(C)C [Atazanavir, atazanavir] | 0.53 (0.46, 0.60) | – | 0.90 (0.64, 1.17) | – | 0.49 (0.29, 0.69) | 1.17 (0.38, 1.95) | 0.34 (0.26, 0.42) | 0.56 (0.38, 0.74) | 0.97 (0.46, 1.48) | Additive- | – | 0.7 | – | –
